The source of these data is patent publication US8933040B2, “Selective glycosidase inhibitors and uses thereof” (priority 2010, dated 2015).

Where two headings read alike, the source gives them in different places.

Assay [1] deals with human O-GlcNAcase (Homo sapiens (Human), UniProt O60502). As to the kind of experiment: Fluorescence-based assay for determination of KI values for inhibition of O-GlcNAcase activity. It is filed as biochemical. Here is the method: Assay for Determination of KI Values for Inhibition of O-GlcNAcase Activity
Chain of human O-GlcNAcase (O60502 whole entry): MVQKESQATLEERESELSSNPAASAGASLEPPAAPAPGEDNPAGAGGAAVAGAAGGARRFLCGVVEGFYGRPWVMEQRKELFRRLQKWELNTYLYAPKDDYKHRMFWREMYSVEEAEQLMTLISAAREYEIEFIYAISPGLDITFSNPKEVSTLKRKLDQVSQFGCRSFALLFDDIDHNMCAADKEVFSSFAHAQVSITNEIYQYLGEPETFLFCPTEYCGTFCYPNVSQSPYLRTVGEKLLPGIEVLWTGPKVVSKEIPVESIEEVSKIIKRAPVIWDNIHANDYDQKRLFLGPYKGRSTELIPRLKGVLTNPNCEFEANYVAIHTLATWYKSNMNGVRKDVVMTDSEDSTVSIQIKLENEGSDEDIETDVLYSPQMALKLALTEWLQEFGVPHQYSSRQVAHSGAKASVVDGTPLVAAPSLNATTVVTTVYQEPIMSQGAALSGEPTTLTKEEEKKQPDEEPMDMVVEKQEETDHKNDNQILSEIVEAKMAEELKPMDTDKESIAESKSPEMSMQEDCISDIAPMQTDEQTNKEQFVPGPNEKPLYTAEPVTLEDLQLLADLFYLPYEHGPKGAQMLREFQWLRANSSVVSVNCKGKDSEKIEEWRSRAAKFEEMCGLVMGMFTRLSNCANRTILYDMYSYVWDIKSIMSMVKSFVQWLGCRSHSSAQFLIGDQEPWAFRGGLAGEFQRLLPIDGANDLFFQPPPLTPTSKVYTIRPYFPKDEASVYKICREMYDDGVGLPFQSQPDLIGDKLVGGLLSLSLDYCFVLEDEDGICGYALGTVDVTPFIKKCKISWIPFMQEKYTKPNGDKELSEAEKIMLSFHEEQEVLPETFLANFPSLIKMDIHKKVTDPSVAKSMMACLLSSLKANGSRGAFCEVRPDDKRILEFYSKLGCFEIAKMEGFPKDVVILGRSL
Experimental Procedure for Kinetic Analyses:
Enzymatic reactions were carried out in a reaction containing 50 mM NaH2PO4, 100 mM NaCl and 0.1% BSA (pH 7.0) using 2 mM 4-Methylumbelliferyl N-acetyl-β-D-glucosaminide dihydrate (Sigma M2133) dissolved in ddH2O, as a substrate. The amount of purified human O-GlcNAcase enzyme used in the reaction was 0.7 nM. Test compound of varying concentrations was added to the enzyme prior to initiation of the reaction. The reaction was performed at room temperature in a 96-well plate and was initiated with the addition of substrate. […] The slope of product production was determined for each concentration of compound tested and plotted, using standard curve fitting algorithms for sigmoidal dose response curves. The values for a four parameter logistic curve fit of the data were determined.

For assay [2], the target named is O-GlcNAcase (Rattus norvegicus (Rat), UniProt Q8VIJ5). In words: Cell-based ELISA for cellular activity of O-GlcNAcase inhibitors (O-GlcNAcylated protein, RL-2 antibody). The text has this:
Assay for Determination of Cellular Activity for Compounds that Inhibit O-GlcNAcase Activity
Inhibition of O-GlcNAcase, which removes O-GlcNAc from cellular proteins, results in an increase in the level of O-GlcNAcylated protein in cells. An increase in O-GlcNAcylated protein can be measured by an antibody, such as RL-2, that binds to O-GlcNAcylated protein. The amount of O-GlcNAcylated protein:RL2 antibody interaction can be measured by enzyme linked immunosorbant assay (ELISA) procedures.
A variety of tissue culture cell lines, expressing endogenous levels of O-GlcNAcase, can be utilized; examples include rat PC-12, and human U-87, or SK—N—SH cells. Rat PC-12 cells were plated in 96-well plates with approximately 10,000 cells/well. Compounds to be tested were dissolved in DMSO, either 2 or 10 mM stock solution, and then diluted with DMSO and water in a two-step process using a Tecan workstation. […] If desired, the total protein concentration of samples was determined using 20 μL of the sample using the BCA method. […]
The values for a four parameter logistic curve fit of the data were determined, with the inflection point of the curve being the potency value for the test compound.

Setting [3] is: purified human O-GlcNAcase 0.7 nM, 2 mM 4-Methylumbelliferyl N-acetyl-β-D-glucosaminide, pH 7.0, Cheng-Prusoff, read-out: Fluorescence-based hOGA Ki.

Chain of O-GlcNAcase (Q8VIJ5 whole entry): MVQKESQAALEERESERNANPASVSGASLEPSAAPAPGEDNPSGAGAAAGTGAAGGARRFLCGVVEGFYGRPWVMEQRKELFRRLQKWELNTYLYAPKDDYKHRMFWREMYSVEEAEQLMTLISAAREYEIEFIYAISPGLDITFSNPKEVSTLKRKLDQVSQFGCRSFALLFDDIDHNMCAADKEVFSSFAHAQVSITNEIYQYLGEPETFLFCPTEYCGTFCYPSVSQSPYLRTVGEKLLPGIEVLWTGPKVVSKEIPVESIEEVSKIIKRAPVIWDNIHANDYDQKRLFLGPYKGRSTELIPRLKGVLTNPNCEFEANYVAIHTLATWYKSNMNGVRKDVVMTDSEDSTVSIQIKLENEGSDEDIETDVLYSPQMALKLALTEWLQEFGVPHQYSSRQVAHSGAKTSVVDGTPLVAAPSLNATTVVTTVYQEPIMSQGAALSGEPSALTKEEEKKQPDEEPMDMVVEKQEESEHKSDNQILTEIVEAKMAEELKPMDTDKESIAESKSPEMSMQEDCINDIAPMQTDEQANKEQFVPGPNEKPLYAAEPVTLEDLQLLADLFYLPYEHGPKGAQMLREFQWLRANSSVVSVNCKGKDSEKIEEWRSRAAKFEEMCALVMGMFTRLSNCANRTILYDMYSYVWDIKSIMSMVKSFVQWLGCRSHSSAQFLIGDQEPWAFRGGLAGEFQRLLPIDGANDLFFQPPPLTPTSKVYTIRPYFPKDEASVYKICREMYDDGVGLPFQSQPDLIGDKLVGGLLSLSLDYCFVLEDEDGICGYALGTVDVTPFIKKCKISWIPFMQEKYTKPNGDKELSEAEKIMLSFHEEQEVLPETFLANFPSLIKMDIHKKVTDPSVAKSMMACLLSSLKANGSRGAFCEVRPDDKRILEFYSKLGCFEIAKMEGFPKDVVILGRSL

Consider `CN(C)C(=O)OC[C@H]1O[C@@H]2SC(N3CCC3)=N[C@@H]2[C@@H](O)[C@@H]1O` [Example 18, ((3aR,5R,6S,7R,7aR)-2-(azetidin-1-yl)-6,7-dihydroxy-5,6,7,7a-tetrahydro-3aH-pyrano[3,2-d]thiazol-5-yl)methyl dimethylcarbamate], for which the Ki in assay [1] (setting [3]) worked out at 350 nM.

As for `OC[C@H]1O[C@@H]2SC(N3CCOCC3)=N[C@@H]2[C@@H](O)[C@@H]1O` [Example 14, (3aR,5R,6S,7R,7aR)-5-(hydroxymethyl)-2-morpholino-5,6,7,7a-tetrahydro-3aH-pyrano[3,2-d]thiazole-6,7-diol], the inhibition constant (Ki) in assay [1] (setting [3]) came to 289 nM.

In assay [1], `OC[C@H]1O[C@@H]2SC(N3CCC3)=N[C@@H]2[C@@H](O)C1O` (stereo in doubt) [Example 1, (3aR,5R,6S,7R,7aR)-2-(azetidin-1-yl)-5-(hydroxymethyl)-5,6,7,7a-tetrahydro-3aH-pyrano[3,2-d]thiazole-6,7-diol] had a Ki of 3.3 nM. In assay [2], the EC50 worked out at 28 nM.

As to `OC[C@H]1O[C@@H]2SC(N3CC(F)C3)=N[C@@H]2[C@@H](O)[C@@H]1O` [Example 3, (3aR,5R,6S,7R,7aR)-2-(3-fluoroazetidin-1-yl)-5-(hydroxymethyl)-5,6,7,7a-tetrahydro-3aH-pyrano[3,2-d]thiazole-6,7-diol], the Ki in assay [1] (setting [3]) was found to be 30 nM.

Turning to `O[C@H]1[C@H](O)[C@@H](CNC2CC2)O[C@@H]2SC(N3CCC3)=N[C@H]12` [Example 16, (3aR,5R,6S,7R,7aR)-2-(azetidin-1-yl)-5-((cyclopropylamino)methyl)-5,6,7,7a-tetrahydro-3aH-pyrano[3,2-d]thiazole-6,7-diol], the inhibition constant (Ki) in assay [1] (setting [3]) stood at 101 nM.

Take `OC[C@H]1O[C@@H]2SC(N3CCCC3)=N[C@@H]2[C@@H](O)[C@@H]1O` [Example 7, (3aR,5R,6S,7R,7aR)-5-(hydroxymethyl)-2-(pyrrolidin-1-yl)-5,6,7,7a-tetrahydro-3aH-pyrano[3,2-d]thiazole-6,7-diol]: the Ki in assay [1] (setting [3]) was 13 nM. The EC50 in assay [2] (Rat PC-12 cells, 24 h treatment, increase in O-GlcNAcylated protein detected with RL-2 antibody, read-out: Cell-based ELISA EC50) was found to be 165 nM.

Consider `COC1CN(C2=N[C@@H]3[C@@H](O)[C@H](O)[C@@H](CO)O[C@@H]3S2)C1` [Example 5, (3aR,5R,6S,7R,7aR)-5-(hydroxymethyl)-2-(3-methoxyazetidin-1-yl)-5,6,7,7a-tetrahydro-3aH-pyrano[3,2-d]thiazole-6,7-diol], for which the Ki in assay [1] (setting [3]) was determined as 142 nM.

What is called Ki is the dissociation constant of the complex between target and ligand, obtained from inhibition or displacement. One may read the EC50 as the concentration that produces a half-maximal response.
